Data on two compounds can be found in patent US20180161290A1, “Dosage Regimen of Diaryl Sulfide Derivatives” (Novartis AG, priority 2010, published 2018).

Molecules are shown by their SMILES.

The test system of data set [1] is healthy subjects. The following applies: 1.25 mg of FTY720; cited from earlier work.
In data set [2] the test system is healthy subjects. The experiment in a line: Multiple ascending dose study in healthy subjects: blood lymphocyte levels. The format is in vivo, human. How it is done: For example in tests on healthy subjects, the maximum percent decrease (geometric mean, 95% confidence interval) from pre-dose blood lymphocyte levels during once daily dosing of compound A for 14 days (28 days for the 2 mg dose level) in healthy subjects was 39% for 0.3 mg, 65% for 0.6 mg, 74% for 1.2 mg, 83% for 2 mg and 77% for 3 mg. The corresponding reduction in the placebo group was 29%, which may be explained by the normal lymphocyte level variability and the definition of the endpoint.
(§1) Multiple ascending doses of compound A were investigated in healthy subjects. 60 subjects in 5 cohorts (12 subjects per cohort) were dosed at 0.3 mg, 0.6 mg, 1.2 mg and 3 mg once daily for 14 days and at 2 mg for 28 days. In each cohort, subjects were randomised between compound A (9 subjects) and placebo (3 subjects).

Data set [3] relates to healthy male volunteers. The data set is described as follows: Double blind, placebo controlled, dose titration, once daily multiple oral dose study (Example 2). The format is in vivo, human. The conditions noted are these: for hourly minimum HR (heart rate) change from baseline: FIG. 3. How it is done:
A total of 56 healthy male volunteers were enrolled in a double blind, parallel, placebo controlled, dose titration, once daily, multiple oral dose study. 53 (95%) subjects completed the study.
Increasing doses of 2-amino-2-[4-(3-benzyloxyphenylthio)-2-chlorophenyl]ethyl-propane-1,3-diol (Compound A) starting at 0.3 mg o.d. or 0.5 mg o.d. and ending at the maximal therapeutic dose of 2 mg o.d. were administered to the subjects as specified in Table 1 below.
Each subject participated in a maximal 21-day Screening period, a Baseline period (Day −2), Run-in period (Day −1), a 21-day treatment period, 14-day Follow up period (with a Follow up visit on Day 35) and study completion assessments on Day 42. Subjects were assigned to one of the four groups (#1 or #2 dose titration group, placebo- or fixed-dose group) and received the once daily (o.d.) treatment in a double blinded manner.
On Day -1 (Run-in), all subjects received placebo and underwent baseline assessments including 24 hour Holter monitoring.
All the study drugs were administered between 8:00 and 8:30, immediately after modest breakfast started 30 min prior to dosing. Dosing was performed as closely as practically possible between the subjects (e.g. within 15 min).
The primary variable, the daily number of bradycardia episodes as defined in the primary objective, were modeled by means of a repeated Poisson model adjusted for the number of bradycardia episodes at Baseline, the day, the treatment, and the treatment-by-day interaction. Generalized Estimating Equations were used to estimate the parameters of the model, including the mean (and 95% CI) number of bradycardia episodes for each treatment group on each day.
The primary objective of the study was assessed from the estimated ratio, obtained from the model above, between the mean number of bradycardia episodes on each ‘dose increase day’ in each titration regimen versus the mean number of bradycardia episodes on Day 1 in the fixed-dose group, and from the 95% CI for this ratio.
The treatment effect in term of other measures of bradycardia, including the change from baseline in hourly (daily) minimum and mean heart rates, was also investigated using an appropriate model.

Data set [4] concerns healthy subjects. The experiment in a line: Multiple ascending dose study in healthy subjects: effect on heart rate (Example 1). The format is in vivo, human. The conditions noted are these: 0.3, 0.6, 1.2, 2 and 3 mg once daily, hourly average heart rate, FIG. 1. On the procedure:
The effect on heart rate of 2-amino-2-[4-(3-benzyloxyphenylthio)-2-chlorophenyl]ethyl propane-1,3-diol (Compound A, or KRP203) was measured in healthy subjects over a period of 28 days and compared to placebo.
as §1
The day 28 graphic compares placebo and 2 mg dose.

Turning to `CCCCCCCCc1ccc(CCC(N)(CO)CO)cc1` [FTY720], the “decrease in heart rate” value in data set [1] is given as “approximately 8 beats/min”.

As to `NC(CO)(CO)CCc1ccc(Sc2cccc(OCc3ccccc3)c2)cc1Cl` [Compound A, 2-amino-2-[4-(3-benzyloxyphenylthio)-2-chlorophenyl]ethyl-propane-1,3-diol], the “maximum percent decrease (geometric mean) from pre-dose blood lymphocyte levels” value was determined as 39% in data set [2] (0.3 mg once daily for 14 days); 65% in data set [2] (0.6 mg once daily for 14 days); 74% in data set [2] (1.2 mg once daily for 14 days); 83% in data set [2] (2 mg once daily for 28 days); 77% in data set [2] (3 mg once daily for 14 days). Moreover, the “hourly minimum HR (heart rate) change from baseline” value was “no decrease in HR compared to matched baseline” in data set [3] (after Day 13, all subjects); “maximum decrease in HR on Days 1 & 2 compared to the 2 titration regimens and resolved by day 5” in data set [3] (fixed dose regimen 2 mg o.d.). Also, the safety and tolerability result in data set [3] (both titration regimens) is “safe and well tolerated”. Moreover, in data set [3] (dose titration groups versus placebo), the “AE (adverse events) profile” value is recorded as “No discernable difference”. In data set [3] (titration regimens T#1 and T#2 versus fixed dose 2 mg day 1, FIG. 2), the “number of bradycardia episodes per day” value was “Both titration regimens had less bradycardic episodes compared to fixed dose day 1”. The “SAEs (severe adverse events)” value in data set [3] (titration study, 21-day treatment) is “No SAEs (severe adverse events) were reported”. Besides, the “decrease in heart rate following dosing” value in data set [4] is recorded as “observed to increase with increasing dosage”.
